# Results taken from US20090118332A1, “Therapeutic Agents - 551” (AstraZeneca AB, priority 2006, published 2009).
# Molecular target: T1, human Fatty Acid Synthase (Homo sapiens, UniProt P49327)
# T1 construct: made in house
# Experiment: Human FAS enzyme assay (decrease in NADPH fluorescence)
# Format: biochemical
# Settings: % inhibition at a concentration of 100 μmolar
# How it was run: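 In-house human FAS was preincubated with compound and NADPH for 15 min at room temperature in 0.1 M Tris pH 7.5 with EDTA, glutathione and BSA. Malonyl CoA and acetyl CoA (500 μM and 150 μM in the added mix) were then added for 60 min. IC50 came from time-zero-subtracted NADPH fluorescence (340/460 nm).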
# T1 sequence (P49327 whole entry): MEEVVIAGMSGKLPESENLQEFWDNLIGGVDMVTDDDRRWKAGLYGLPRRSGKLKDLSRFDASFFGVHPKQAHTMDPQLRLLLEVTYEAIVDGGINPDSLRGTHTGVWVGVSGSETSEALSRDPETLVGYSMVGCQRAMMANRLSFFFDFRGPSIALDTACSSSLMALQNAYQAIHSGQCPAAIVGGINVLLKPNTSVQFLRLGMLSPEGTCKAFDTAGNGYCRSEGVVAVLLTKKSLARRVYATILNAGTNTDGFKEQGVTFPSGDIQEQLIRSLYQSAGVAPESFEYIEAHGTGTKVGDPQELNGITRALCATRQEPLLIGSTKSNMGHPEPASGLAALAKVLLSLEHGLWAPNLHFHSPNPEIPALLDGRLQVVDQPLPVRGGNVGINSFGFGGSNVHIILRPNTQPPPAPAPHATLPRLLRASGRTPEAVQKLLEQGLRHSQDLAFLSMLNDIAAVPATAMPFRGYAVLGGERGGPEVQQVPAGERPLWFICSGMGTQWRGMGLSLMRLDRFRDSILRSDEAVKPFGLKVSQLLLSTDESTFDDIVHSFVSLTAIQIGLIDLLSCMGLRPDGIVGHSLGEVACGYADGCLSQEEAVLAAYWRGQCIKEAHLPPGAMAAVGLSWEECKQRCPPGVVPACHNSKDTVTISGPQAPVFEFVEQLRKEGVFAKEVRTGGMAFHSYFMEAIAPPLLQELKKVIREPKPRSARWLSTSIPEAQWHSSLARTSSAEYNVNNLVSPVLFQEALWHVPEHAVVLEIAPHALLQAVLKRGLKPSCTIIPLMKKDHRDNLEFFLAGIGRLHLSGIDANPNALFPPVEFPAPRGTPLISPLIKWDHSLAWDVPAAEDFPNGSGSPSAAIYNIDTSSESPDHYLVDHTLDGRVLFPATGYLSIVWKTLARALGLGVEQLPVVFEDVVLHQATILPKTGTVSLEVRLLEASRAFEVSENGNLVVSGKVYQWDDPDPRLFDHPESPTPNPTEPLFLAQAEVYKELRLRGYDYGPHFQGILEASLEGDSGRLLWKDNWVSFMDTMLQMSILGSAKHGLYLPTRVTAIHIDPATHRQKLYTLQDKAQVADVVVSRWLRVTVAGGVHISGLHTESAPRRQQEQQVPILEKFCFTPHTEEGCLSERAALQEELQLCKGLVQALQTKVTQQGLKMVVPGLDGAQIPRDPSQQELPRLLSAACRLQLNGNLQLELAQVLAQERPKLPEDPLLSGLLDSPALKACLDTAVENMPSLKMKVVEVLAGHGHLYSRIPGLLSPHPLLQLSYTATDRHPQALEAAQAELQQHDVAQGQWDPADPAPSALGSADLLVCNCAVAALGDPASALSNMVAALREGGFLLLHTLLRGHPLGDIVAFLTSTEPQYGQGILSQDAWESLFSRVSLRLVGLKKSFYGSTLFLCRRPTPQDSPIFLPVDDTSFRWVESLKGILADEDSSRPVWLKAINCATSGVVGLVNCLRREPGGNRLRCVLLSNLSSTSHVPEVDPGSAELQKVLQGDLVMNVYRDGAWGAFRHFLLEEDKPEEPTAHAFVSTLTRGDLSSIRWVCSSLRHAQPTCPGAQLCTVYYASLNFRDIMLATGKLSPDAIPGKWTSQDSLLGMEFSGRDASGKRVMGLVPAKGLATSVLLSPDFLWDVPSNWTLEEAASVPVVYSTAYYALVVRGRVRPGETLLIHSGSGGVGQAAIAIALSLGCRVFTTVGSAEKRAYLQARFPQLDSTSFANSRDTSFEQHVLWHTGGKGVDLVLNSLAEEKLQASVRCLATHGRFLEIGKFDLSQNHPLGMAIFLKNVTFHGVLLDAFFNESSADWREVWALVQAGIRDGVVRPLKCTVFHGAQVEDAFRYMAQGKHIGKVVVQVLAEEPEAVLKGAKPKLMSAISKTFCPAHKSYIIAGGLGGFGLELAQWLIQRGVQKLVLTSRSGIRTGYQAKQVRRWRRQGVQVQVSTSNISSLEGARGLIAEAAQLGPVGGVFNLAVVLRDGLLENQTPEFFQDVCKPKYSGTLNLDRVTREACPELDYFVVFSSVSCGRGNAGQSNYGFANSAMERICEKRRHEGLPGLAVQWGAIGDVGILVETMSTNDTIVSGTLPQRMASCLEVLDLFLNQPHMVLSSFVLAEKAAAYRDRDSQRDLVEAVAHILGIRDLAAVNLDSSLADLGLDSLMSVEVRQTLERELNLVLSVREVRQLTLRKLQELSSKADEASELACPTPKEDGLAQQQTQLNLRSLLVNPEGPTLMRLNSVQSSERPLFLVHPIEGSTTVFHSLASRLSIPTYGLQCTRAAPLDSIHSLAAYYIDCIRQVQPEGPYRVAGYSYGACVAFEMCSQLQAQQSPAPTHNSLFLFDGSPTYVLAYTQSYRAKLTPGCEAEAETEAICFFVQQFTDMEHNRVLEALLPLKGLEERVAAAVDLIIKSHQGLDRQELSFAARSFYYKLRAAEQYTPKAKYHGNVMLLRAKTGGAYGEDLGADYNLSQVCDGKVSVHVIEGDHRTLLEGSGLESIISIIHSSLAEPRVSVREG
row,inhibition at 100 µM [%],Structure (SMILES)
1,84.5,"CC(=O)N1CCC(NC(=O)Nc2cc(C(=O)N3CCC(c4ccc(F)cc4)CC3)ccc2C)C1 (centres unmarked) [Example 348, 3-(1-acetylpyrrolidin-3-yl)-1-[5-[4-(4-fluorophenyl)piperidine-1-carbonyl]-2-methyl-phenyl]urea]"
2,88.7,"Cc1ccc(C(=O)N2CCC(c3ccc(F)cc3)CC2)cc1NC(=O)NC1CCNC1 (centres unmarked) [Example 349, 1-[5-[4-(4-fluorophenyl)piperidine-1-carbonyl]-2-methyl-phenyl]-3-pyrrolidin-3-yl-urea]"
3,71.4,"Cc1ccc(C(=O)N2CCC(O)(c3ccc(Cl)cc3)CC2)cc1NC(=O)NC(C)C [Example 350, 1-[5-[4-(4-chlorophenyl)-4-hydroxy-piperidine-1-carbonyl]-2-methyl-phenyl]-3-propan-2-yl-urea]"
4,88.9,"Cc1ccc(C(=O)N2CCC(c3ccc(F)cc3)CC2)cc1NC(=O)NCCN(C)S(C)(=O)=O [Example 351, 1-[5-[4-(4-fluorophenyl)piperidine-1-carbonyl]-2-methyl-phenyl]-3-[2-(methyl-methylsulfonyl-amino)ethyl]urea]"
5,75.6,"CC(=O)N(C)CCNC(=O)Nc1cc(C(=O)N2CCC(c3ccc(F)cc3)CC2)ccc1C [Example 352, N-[2-[[5-[4-(4-fluorophenyl)piperidine-1-carbonyl]-2-methyl-phenyl]carbamoylamino]ethyl]-N-methyl-acetamide]"
6,78.4,"CCC(=O)NCCN(C)C(=O)Nc1cc(C(=O)N2CCC(c3ccc(C#N)cc3)CC2)ccc1C [Example 353, N-[2-[[5-[4-(4-cyanophenyl)piperidine-1-carbonyl]-2-methyl-phenyl]carbamoyl-methyl-amino]ethyl]propanamide]"
7,91.3,"Cc1ccc(C(=O)N2CCC(c3ccc(C#N)cc3)CC2)cc1NC(=O)NC(C)c1cccnc1 (centres unmarked) [Example 354, 1-[5-[4-(4-cyanophenyl)piperidine-1-carbonyl]-2-methyl-phenyl]-3-(1-pyridin-3-ylethyl)urea]"
8,82.2,"Cc1ccc(C(=O)N2CCC(c3ccc(Cl)cc3)CC2)cc1NC(=O)NCc1ccccn1 [Example 355, 1-[5-[4-(4-chlorophenyl)piperidine-1-carbonyl]-2-methyl-phenyl]-3-(pyridin-2-ylmethyl)urea]"
9,92.4,"Cc1ccc(C(=O)N2CCC(c3ccc(C#N)cc3)CC2)cc1NC(=O)NCc1cnn(C)c1 [Example 356, 1-[5-[4-(4-cyanophenyl)piperidine-1-carbonyl]-2-methyl-phenyl]-3-[(1-methylpyrazol-4-yl)methyl]urea]"
10,102,"Cc1ccc(C(=O)N2CCC(c3ccc(C#N)cc3)CC2)cc1NC(=O)NC(C)c1ccncc1 (centres unmarked) [Example 357, 1-[5-[4-(4-cyanophenyl)piperidine-1-carbonyl]-2-methyl-phenyl]-3-(1-pyridin-4-ylethyl)urea]"
11,93.2,"Cc1ccc(C(=O)N2CCC(c3ccc(C#N)cc3)CC2)cc1NC(=O)NCc1cccc(N2CCOCC2)n1 [Example 358, 1-[5-[4-(4-cyanophenyl)piperidine-1-carbonyl]-2-methyl-phenyl]-3-[(6-morpholin-4-ylpyridin-2-yl)methyl]urea]"
12,92.1,"Cc1ccc(C(=O)N2CCC(c3ccc(Cl)cc3)CC2)cc1NC(=O)NC(C)C [Example 359, 1-[5-[4-(4-chlorophenyl)piperidine-1-carbonyl]-2-methyl-phenyl]-3-propan-2-yl-urea]"
13,97.3,"Cc1ccc(C(=O)N2CCC(c3ccc(S(N)(=O)=O)cc3)CC2)cc1NC(=O)NC(C)C [Example 360, 1-[2-methyl-5-[4-(4-sulfamoylphenyl)piperidine-1-carbonyl]phenyl]-3-propan-2-yl-urea]"
14,101,"CNC(=O)Nc1cc(C(=O)N2CCC(c3ccc(C#N)cc3)CC2)ccc1C [Example 361, 1-[5-[4-(4-cyanophenyl)piperidine-1-carbonyl]-2-methyl-phenyl]-3-methyl-urea]"
